Reference: patent publication US6706663B2, “Herbicidal 3-heterocyclic substituted benzisothiazole and benzisoxazole compounds” (Wyeth, priority 2000, dated 2004)

Assays:
ZEAMX (Corn, Field) = experiment: Preemergence herbicidal evaluation; type: in vivo, Zea mays, L.; settings: preemergence, rated 4-5 weeks after treatment
[1] = tested on: CYPSE (Cyperus serotinus); experiment: Flooded paddy, preemergence weed control; type: in vivo, Rottb.; settings: rated 3-4 weeks after treatment, 0-9 rating scale
In short: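 Herbicidal effect was scored visually on a 0–9 scale against an untreated control 3–4 weeks after treatment. Compounds were applied preemergence as 50/50 v/v aqueous/acetone mixtures into flood water (1.5–3 cm deep over silt loam), at roughly 0.0080 to 0.1250 kg/ha active ingredient.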

[2] = tested on: TRZAWR (Wheat, Winter, cv Riband); experiment: Postemergence herbicidal evaluation; type: in vivo, Triticum aestivum
In short: (§1)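 Visual 0–9 injury scores versus control plants, covering stand, vigour, malformation, size, chlorosis and general appearance, taken four to five weeks post-spray and averaged over replicate tests. Plants were sprayed at roughly two weeks old and held on greenhouse benches.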

[3] = tested on: ABUTH (Abutilon theophrasti); experiment: Preemergence herbicidal evaluation; type: in vivo, Medic.; settings: preemergence, rated 4-5 weeks after treatment
[4] = tested on: GLXMAW (Soybean, Williams); experiment: Preemergence herbicidal evaluation; type: in vivo, Glycine max, (L.) Merr. cv Williams; settings: preemergence, rated 4-5 weeks after treatment
[5] = tested on: TRZAWR (Wheat, Winter, cv Riband); experiment: Preemergence herbicidal evaluation; type: in vivo, Triticum aestivum; settings: preemergence, rated 4-5 weeks after treatment
In short: (§2)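 Steps: mix seeds with potting soil; plant on ~1 inch soil per cup; spray compound in aqueous acetone; hold on greenhouse benches with routine watering; rate 0–9 visually against control at 4–5 weeks.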

GALAP (Galium aparine) = experiment: Preemergence herbicidal evaluation; type: in vivo; settings: preemergence, rated 4-5 weeks after treatment
In short: as §2

[6] = tested on: CHEAL (Chenopodium album); experiment: Postemergence herbicidal evaluation; type: in vivo, L.
In short: as §1

[7] = tested on: CASOB (Cassia obtusifolia); experiment: Postemergence herbicidal evaluation; type: in vivo, L.
In short: as §1

[8] = tested on: AMBEL (Ambrosia artemisifolia); experiment: Postemergence herbicidal evaluation; type: in vivo, L.
In short: as §1

Cn1ccnc1-c1nsc2ccc(-n3c(=O)cc(C(F)(F)F)n(C)c3=O)cc12 [Compound 5, 1-methyl-3-[3-(1-methylimidazol-2-yl)-1,2-benzisothiazol-5-yl]-6-(trifluoromethyl)uracil]
ZEAMX preemergence herbicidal rating (ZEAMX (Corn, Field); Rate 0.0620 kg/ha): 4.0
ZEAMX preemergence herbicidal rating (ZEAMX (Corn, Field); Rate 0.1250 kg/ha): 6.5
ZEAMX preemergence herbicidal rating (ZEAMX (Corn, Field); Rate 0.2500 kg/ha): 7.0
herbicidal rating, CYPSE ([1]; rate 0.0320 kg/ha): 0.0
herbicidal rating, CYPSE ([1]; rate 0.1250 kg/ha): 0.0
Postemergence herbicidal rating, TRZAWR ([2]; rate 0.0320 kg/ha): 2.5
Postemergence herbicidal rating, TRZAWR ([2]; rate 0.0620 kg/ha): 3.5
ABUTH preemergence herbicidal rating ([3]; Rate 0.0620 kg/ha): 7.0
ABUTH preemergence herbicidal rating ([3]; Rate 0.1250 kg/ha): 9.0
ABUTH preemergence herbicidal rating ([3]; Rate 0.2500 kg/ha): 9.0
GLXMAW preemergence herbicidal rating ([4]; Rate 0.0620 kg/ha): 2.0
GLXMAW preemergence herbicidal rating ([4]; Rate 0.1250 kg/ha): 3.5
GLXMAW preemergence herbicidal rating ([4]; Rate 0.2500 kg/ha): 6.5
TRZAWR preemergence herbicidal rating ([5]; Rate 0.0620 kg/ha): 5.0
TRZAWR preemergence herbicidal rating ([5]; Rate 0.1250 kg/ha): 7.0
TRZAWR preemergence herbicidal rating ([5]; Rate 0.2500 kg/ha): 8.0
GALAP preemergence herbicidal rating (GALAP (Galium aparine); Rate 0.0620 kg/ha): 4.0
GALAP preemergence herbicidal rating (GALAP (Galium aparine); Rate 0.1250 kg/ha): 5.0
GALAP preemergence herbicidal rating (GALAP (Galium aparine); Rate 0.2500 kg/ha): 7.0
Postemergence herbicidal rating, CHEAL ([6]; rate 0.0320 kg/ha): 0.0
Postemergence herbicidal rating, CHEAL ([6]; rate 0.0620 kg/ha): 2.0
Postemergence herbicidal rating, CASOB ([7]; rate 0.0320 kg/ha): 0.0
Postemergence herbicidal rating, CASOB ([7]; rate 0.0620 kg/ha): 2.0
Postemergence herbicidal rating, AMBEL ([8]; rate 0.0320 kg/ha): 2.0
Postemergence herbicidal rating, AMBEL ([8]; rate 0.0620 kg/ha): 9.0

Cn1c(C(F)(F)F)cc(=O)n(-c2ccc3snc(C4OCCCO4)c3c2)c1=O [Compound 28, 3-(3-m-dioxan-2-yl-1,2-benzisothiazol-5-yl)-1-methyl-6-(trifluoromethyl)uracil]
ZEAMX preemergence herbicidal rating (ZEAMX (Corn, Field); Rate 0.0620 kg/ha): 8.0
ZEAMX preemergence herbicidal rating (ZEAMX (Corn, Field); Rate 0.1250 kg/ha): 9.0
ZEAMX preemergence herbicidal rating (ZEAMX (Corn, Field); Rate 0.2500 kg/ha): 9.0
herbicidal rating, CYPSE ([1]; rate 0.0320 kg/ha): 9.0
herbicidal rating, CYPSE ([1]; rate 0.1250 kg/ha): 9.0
Postemergence herbicidal rating, TRZAWR ([2]; rate 0.0320 kg/ha): 5.0
Postemergence herbicidal rating, TRZAWR ([2]; rate 0.0620 kg/ha): 6.5
ABUTH preemergence herbicidal rating ([3]; Rate 0.0620 kg/ha): 9.0
ABUTH preemergence herbicidal rating ([3]; Rate 0.1250 kg/ha): 9.0
ABUTH preemergence herbicidal rating ([3]; Rate 0.2500 kg/ha): 9.0
GLXMAW preemergence herbicidal rating ([4]; Rate 0.0620 kg/ha): 8.0
GLXMAW preemergence herbicidal rating ([4]; Rate 0.1250 kg/ha): 9.0
GLXMAW preemergence herbicidal rating ([4]; Rate 0.2500 kg/ha): 9.0
TRZAWR preemergence herbicidal rating ([5]; Rate 0.0620 kg/ha): 9.0
TRZAWR preemergence herbicidal rating ([5]; Rate 0.1250 kg/ha): 9.0
TRZAWR preemergence herbicidal rating ([5]; Rate 0.2500 kg/ha): 9.0
GALAP preemergence herbicidal rating (GALAP (Galium aparine); Rate 0.0620 kg/ha): 9.0
GALAP preemergence herbicidal rating (GALAP (Galium aparine); Rate 0.1250 kg/ha): 9.0
GALAP preemergence herbicidal rating (GALAP (Galium aparine); Rate 0.2500 kg/ha): 9.0
Postemergence herbicidal rating, CHEAL ([6]; rate 0.0320 kg/ha): 9.0
Postemergence herbicidal rating, CHEAL ([6]; rate 0.0620 kg/ha): 9.0
Postemergence herbicidal rating, CASOB ([7]; rate 0.0320 kg/ha): 8.0
Postemergence herbicidal rating, CASOB ([7]; rate 0.0620 kg/ha): 9.0
Postemergence herbicidal rating, AMBEL ([8]; rate 0.0320 kg/ha): 9.0
Postemergence herbicidal rating, AMBEL ([8]; rate 0.0620 kg/ha): 9.0
